Read-outs that look alike come from different tables or passages of the source.
Experiments:
SW-620 = test: NCI human tumor cell line panel, Colon Cancer
COLO 205 = test: NCI human tumor cell line panel, Colon Cancer; format: cell-based

C=C1C(=O)O[C@H]2[C@H]1CC/C(COC(=O)c1cc3ccccc3[nH]1)=C\CC[C@@]1(C)O[C@@H]21 [BS-1-28]
Percent Growth (HL-60(TB); Log10 Concentration −4.0): −57%
Percent Growth (HL-60(TB); Log10 Concentration −5.0): −17%
Percent Growth (HL-60(TB); Log10 Concentration −6.0): 28%
Percent Growth (HL-60(TB); Log10 Concentration −7.0): 112%
Percent Growth (HL-60(TB); Log10 Concentration −8.0): 114%
GI50 (HL-60(TB); NCI five dose): 0.546 µM
TGI (HL-60(TB); NCI five dose): 4.15E−6
CC50 (HL-60(TB); read-out: LC50, NCI five dose): 65.8 µM
Percent Growth (SW-620; Log10 Concentration −4.0): −75%
Percent Growth (SW-620; Log10 Concentration −5.0): −67%
Percent Growth (SW-620; Log10 Concentration −6.0): −19%
Percent Growth (SW-620; Log10 Concentration −7.0): 98%
Percent Growth (SW-620; Log10 Concentration −8.0): 93%
GI50 (SW-620; NCI five dose): 0.256 µM
TGI (SW-620; NCI five dose): 8.88E−7
CC50 (SW-620; read-out: LC50, NCI five dose): 4.47 µM
CC50 (T-47D): > 100 µM
GI50 (T-47D): < 0.01 µM
Percent Growth (T-47D; T-47D, Log10 Concentration −4.0): −33%
Percent Growth (T-47D; T-47D, Log10 Concentration −5.0): −43%
Percent Growth (T-47D; T-47D, Log10 Concentration −6.0): 35%
Percent Growth (T-47D; T-47D, Log10 Concentration −7.0): 40%
Percent Growth (T-47D; T-47D, Log10 Concentration −8.0): −2%
GI50 (T-47D; T-47D, NCI five dose): < 0.01 µM
CC50 (OVCAR-4): 8.43 µM
Percent Growth (OVCAR-4; OVCAR-4, Log10 Concentration −4.0): −84%
Percent Growth (OVCAR-4; OVCAR-4, Log10 Concentration −5.0): −58%
Percent Growth (OVCAR-4; OVCAR-4, Log10 Concentration −6.0): 48%
Percent Growth (OVCAR-4; OVCAR-4, Log10 Concentration −7.0): 88%
Percent Growth (OVCAR-4; OVCAR-4, Log10 Concentration −8.0): 4%
TGI (OVCAR-4; OVCAR-4, NCI five dose): 2.85E−6
CC50 (MALME-3M): 6.07 µM
Percent Growth (MALME-3M; MALME-3M, Log10 Concentration −4.0): −82%
Percent Growth (MALME-3M; MALME-3M, Log10 Concentration −5.0): −87%
Percent Growth (MALME-3M; MALME-3M, Log10 Concentration −6.0): 82%
Percent Growth (MALME-3M; MALME-3M, Log10 Concentration −7.0): 91%
Percent Growth (MALME-3M; MALME-3M, Log10 Concentration −8.0): 91%
GI50 (MALME-3M; MALME-3M, NCI five dose): 1.56 µM
TGI (MALME-3M; MALME-3M, NCI five dose): 3.07E−6
CC50 (786-0): 9.01 µM
Percent Growth (786-0; 786-0, Log10 Concentration −4.0): −94%
Percent Growth (786-0; 786-0, Log10 Concentration −5.0): −90%
Percent Growth (786-0; 786-0, Log10 Concentration −6.0): 11%
Percent Growth (786-0; 786-0, Log10 Concentration −7.0): 102%
Percent Growth (786-0; 786-0, Log10 Concentration −8.0): 96%
GI50 (786-0; 786-0, NCI five dose): 0.371 µM
TGI (786-0; 786-0, NCI five dose): 1.28E−6
CC50 (UACC-62): 6.98 µM
Percent Growth (UACC-62; UACC-62, Log10 Concentration −4.0): −15%
Percent Growth (UACC-62; UACC-62, Log10 Concentration −5.0): −73%
Percent Growth (UACC-62; UACC-62, Log10 Concentration −6.0): 75%
Percent Growth (UACC-62; UACC-62, Log10 Concentration −7.0): 91%
Percent Growth (UACC-62; UACC-62, Log10 Concentration −8.0): 97%
GI50 (UACC-62; UACC-62, NCI five dose): 1.47 µM
TGI (UACC-62; UACC-62, NCI five dose): 3.21E−6
CC50 (NCI-H460): 7.75 µM
Percent Growth (NCI-H460; NCI-H460, Log10 Concentration −4.0): −75%
Percent Growth (NCI-H460; NCI-H460, Log10 Concentration −5.0): −67%
Percent Growth (NCI-H460; NCI-H460, Log10 Concentration −6.0): 86%
Percent Growth (NCI-H460; NCI-H460, Log10 Concentration −7.0): 101%
Percent Growth (NCI-H460; NCI-H460, Log10 Concentration −8.0): 166%
GI50 (NCI-H460; NCI-H460, NCI five dose): 1.73 µM
TGI (NCI-H460; NCI-H460, NCI five dose): 3.66E−6
CC50 (OVCAR-5): 8.22 µM
Percent Growth (OVCAR-5; OVCAR-5, Log10 Concentration −4.0): −88%
Percent Growth (OVCAR-5; OVCAR-5, Log10 Concentration −5.0): −59%
Percent Growth (OVCAR-5; OVCAR-5, Log10 Concentration −6.0): 57%
Percent Growth (OVCAR-5; OVCAR-5, Log10 Concentration −7.0): 96%
Percent Growth (OVCAR-5; OVCAR-5, Log10 Concentration −8.0): 85%
GI50 (OVCAR-5; OVCAR-5, NCI five dose): 1.14 µM
TGI (OVCAR-5; OVCAR-5, NCI five dose): 3.07E−6
Percent Growth (COLO 205; Log10 Concentration −4.0): −63%
Percent Growth (COLO 205; Log10 Concentration −5.0): −61%
Percent Growth (COLO 205; Log10 Concentration −6.0): 39%
Percent Growth (COLO 205; Log10 Concentration −7.0): 60%
Percent Growth (COLO 205; Log10 Concentration −8.0): 27%
TGI (COLO 205; NCI five dose): 2.44E−6
CC50 (HS 57BT): > 100 µM
Percent Growth (HS 57BT; HS 57BT, Log10 Concentration −4.0): −20%
Percent Growth (HS 57BT; HS 57BT, Log10 Concentration −5.0): −5%
Percent Growth (HS 57BT; HS 57BT, Log10 Concentration −6.0): 78%
Percent Growth (HS 57BT; HS 57BT, Log10 Concentration −7.0): 84%
Percent Growth (HS 57BT; HS 57BT, Log10 Concentration −8.0): 47%
TGI (HS 57BT; HS 57BT, NCI five dose): 8.71E−6
CC50 (DU-145): 5.2 µM
Percent Growth (DU-145; DU-145, Log10 Concentration −4.0): −98%
Percent Growth (DU-145; DU-145, Log10 Concentration −5.0): −95%
Percent Growth (DU-145; DU-145, Log10 Concentration −6.0): 63%
Percent Growth (DU-145; DU-145, Log10 Concentration −7.0): 98%
Percent Growth (DU-145; DU-145, Log10 Concentration −8.0): 91%
GI50 (DU-145; DU-145, NCI five dose): 1.21 µM
TGI (DU-145; DU-145, NCI five dose): 2.51E−6
CC50 (SF-268): 6.5 µM
Percent Growth (SF-268; SF-268, Log10 Concentration −4.0): −85%
Percent Growth (SF-268; SF-268, Log10 Concentration −5.0): −81%
Percent Growth (SF-268; SF-268, Log10 Concentration −6.0): 83%
Percent Growth (SF-268; SF-268, Log10 Concentration −7.0): 96%
Percent Growth (SF-268; SF-268, Log10 Concentration −8.0): 98%
GI50 (SF-268; SF-268, NCI five dose): 1.59 µM
TGI (SF-268; SF-268, NCI five dose): 3.22E−6
CC50 (SK-MEL-28): 5.74 µM
Percent Growth (SK-MEL-28; SK-MEL-28, Log10 Concentration −4.0): −93%
Percent Growth (SK-MEL-28; SK-MEL-28, Log10 Concentration −5.0): 47%
Percent Growth (SK-MEL-28; SK-MEL-28, Log10 Concentration −6.0): 67%
Percent Growth (SK-MEL-28; SK-MEL-28, Log10 Concentration −7.0): 101%
Percent Growth (SK-MEL-28; SK-MEL-28, Log10 Concentration −8.0): 90%
GI50 (SK-MEL-28; SK-MEL-28, NCI five dose): 1.28 µM
TGI (SK-MEL-28; SK-MEL-28, NCI five dose): 2.72E−6
CC50 (OVCAR-8): 64.6 µM
Percent Growth (OVCAR-8; OVCAR-8, Log10 Concentration −4.0): −63%
Percent Growth (OVCAR-8; OVCAR-8, Log10 Concentration −5.0): 5%
Percent Growth (OVCAR-8; OVCAR-8, Log10 Concentration −6.0): 69%
Percent Growth (OVCAR-8; OVCAR-8, Log10 Concentration −7.0): 63%
Percent Growth (OVCAR-8; OVCAR-8, Log10 Concentration −8.0): 58%
GI50 (OVCAR-8; OVCAR-8, NCI five dose): 1.99 µM
TGI (OVCAR-8; OVCAR-8, NCI five dose): 1.19E−4
CC50 (HCC-2998): 8.77 µM
Percent Growth (HCC-2998; HCC-2998, Log10 Concentration −4.0): −84%
Percent Growth (HCC-2998; HCC-2998, Log10 Concentration −5.0): −59%
Percent Growth (HCC-2998; HCC-2998, Log10 Concentration −6.0): 104%
Percent Growth (HCC-2998; HCC-2998, Log10 Concentration −7.0): 104%
Percent Growth (HCC-2998; HCC-2998, Log10 Concentration −8.0): 103%
GI50 (HCC-2998; HCC-2998, NCI five dose): 2.14 µM
TGI (HCC-2998; HCC-2998, NCI five dose): 4.33E−6
CC50 (NCI-H522): 6.72 µM
Percent Growth (NCI-H522; NCI-H522, Log10 Concentration −4.0): −72%
Percent Growth (NCI-H522; NCI-H522, Log10 Concentration −5.0): −69%
Percent Growth (NCI-H522; NCI-H522, Log10 Concentration −6.0): 43%
Percent Growth (NCI-H522; NCI-H522, Log10 Concentration −7.0): 104%
Percent Growth (NCI-H522; NCI-H522, Log10 Concentration −8.0): 83%
GI50 (NCI-H522; NCI-H522, NCI five dose): 0.757 µM
TGI (NCI-H522; NCI-H522, NCI five dose): 2.40E−6
CC50 (CAKI-1): 4.82 µM
Percent Growth (CAKI-1; CAKI-1, Log10 Concentration −4.0): −100%
Percent Growth (CAKI-1; CAKI-1, Log10 Concentration −5.0): −99%
Percent Growth (CAKI-1; CAKI-1, Log10 Concentration −6.0): 55%
Percent Growth (CAKI-1; CAKI-1, Log10 Concentration −7.0): 90%
Percent Growth (CAKI-1; CAKI-1, Log10 Concentration −8.0): 86%
GI50 (CAKI-1; CAKI-1, NCI five dose): 1.08 µM
TGI (CAKI-1; CAKI-1, NCI five dose): 2.18E−6

— US9920063B2, “Melampomagnolide B derivatives” (Board of Trustees of the University of Arkansas, priority 2013, dated 2018)
